Active and inactive are the calls of the source. The calls are words filed in the database; no cut-off is given here.
What was measured:
MGC-803 [1] = experiment: Antimetastatic activity against human MGC-803 cells assessed as inhibition of cell migration measured after 24 hrs by transwell assay; assay type: functional, cell-based; details: dose 2.5-15 µM
HCT-116 [2] = experiment: Induction of apoptosis in human HCT-116 cells assessed as necrotic cells at 20 uM measured after 48 hrs by Annexin V-FITC/PI staining based flow cytometry (reference value: 1.5%); assay type: functional
HCT-116 [3] = experiment: Induction of apoptosis in human HCT-116 cells assessed as upregulation of Bax expression at 2.5 to 10 uM measured after 48 hrs by western blot assay; assay type: functional, cell-based; details: dose 2.5-10 µM
HCT-116 [4] = experiment: Induction of apoptosis in human HCT-116 cells assessed as viable cells at 2.5 uM measured after 48 hrs by Annexin V-FITC/PI staining based flow cytometry assay (reference value: 94.9%); assay type: functional; details: read-out: Activity
MGC-803 [5] = experiment: Inhibition of clonogenicity in human MGC-803 cells assessed as reduction in colony formation measured after 6 days by crystal violet staining based analysis; assay type: functional, cell-based; details: dose 2-16 µM, time 6.0 day
HCT-116 [6] = experiment: Downregulation of STAT3 expression in human HCT-116 cells at 10 uM measured after 3 hrs by Hoechst/fluorochrome-conjugated antibody staining based confocal laser microscopy; assay type: functional, cell-based
HCT-116 [7] = experiment: Induction of apoptosis in human HCT-116 cells assessed as late apoptotic cells at 20 uM measured after 48 hrs by Annexin V-FITC/PI staining based flow cytometry (reference value: 1.42%); assay type: functional
[8] = Toxicity in Kunming mouse assessed as animal survival at 1000 mg/kg, ig measured for 14 days; assay type: organism-based; details: in vivo, po, 336 h, time 14 day
MGC-803 [9] = experiment: Cytotoxicity against human MGC-803 cells assessed as reduction in cell viability at <=10 uM measured after 48 hrs by CCK8 assay; assay type: cell-based; details: mgc-803, 48 h
[10] = molecular target: Signal transducer and activator of transcription 3 (Homo sapiens) (UniProt P40763); experiment: Inhibition of STAT3 in human HCT-116 cells assessed as decrease in STAT3 phosphorylation at 2.5 to 10 uM measured after 48 hrs by western blot assay; assay type: cell-based; details: dose 2.5-10 µM
HCT-116 [11] = experiment: Induction of apoptosis in human HCT-116 cells assessed as necrotic cells at 10 uM measured after 48 hrs by Annexin V-FITC/PI staining based flow cytometry (reference value: 1.5%); assay type: functional
HCT-116 [12] = experiment: Antimetastatic activity against human HCT-116 cells assessed as inhibition of cell invasion measured after 36 hrs by transwell assay; assay type: functional, cell-based; details: dose 2.5-15 µM
HCT-116 [13] = experiment: Antiproliferative activity against human HCT-116 cells assessed as decrease in cell population at S-phase at 1.25 to 10 uM measured after 24 hrs by EdU incorporation based fluorescence microscopic analysis; assay type: functional; details: dose 1.25-10 µM
HCT-116 [14] = experiment: Antimetastatic activity against human HCT-116 cells assessed as inhibition of cell migration measured after 36 hrs by transwell assay; assay type: functional, cell-based; details: dose 2.5-15 µM
HCT-116 [15] = experiment: Induction of apoptosis in human HCT-116 cells assessed as chromatin pyknosis at 2.5 to 15 uM measured after 48 hrs by Giemsa staining method; assay type: functional, cell-based; details: dose 2.5-15 µM
HCT-116 [16] = experiment: Induction of apoptosis in human HCT-116 cells assessed as necrotic cells at 5 uM measured after 48 hrs by Annexin V-FITC/PI staining based flow cytometry (reference value: 1.5%); assay type: functional
[17] = Toxicity in Kunming mouse assessed as hair condition at 1000 mg/kg, ig measured for 14 days; assay type: organism-based; details: in vivo, po, 336 h, time 14 day
HCT-116 [18] = experiment: Induction of apoptosis in human HCT-116 cells assessed as plasmatorrhexis at 2.5 to 15 uM measured after 48 hrs by Giemsa staining method; assay type: functional, cell-based; details: dose 2.5-15 µM
MGC-803 [19] = experiment: Induction of apoptosis in human MGC-803 cells at 2.5 to 20 uM measured after 48 hrs by Annexin V-FITC/PI staining based flow cytometry; assay type: functional, cell-based; details: dose 2.5-20 µM
HCT-116 [20] = experiment: Induction of apoptosis in human HCT-116 cells assessed as necrotic cells at 2.5 uM measured after 48 hrs by Annexin V-FITC/PI staining based Flowcytometry assay (reference value: 1.5%); assay type: functional
MGC-803 [21] = experiment: Antimetastatic activity against human MGC-803 cells assessed as inhibition of cell invasion measured after 24 hrs by transwell assay; assay type: functional, cell-based; details: dose 2.5-15 µM
HCT-116 [22] = experiment: Induction of apoptosis in human HCT-116 cells assessed as downregulation of cytochrome C expression at 2.5 to 10 uM measured after 48 hrs by western blot assay; assay type: functional, cell-based; details: dose 2.5-10 µM
[23] = Half life in Sprague-Dawley rat at 100 mg/kg, ig measured for 24 hrs by LC-MS analysis; assay type: ADME, organism-based; details: in vivo, po
MGC-803 [24] = experiment: Induction of cell cycle arrest in human MGC-803 cells at 2.5 to 20 uM measured after 48 hrs by propidium iodide staining based flow cytometry analysis; assay type: functional; details: dose 2.5-20 µM
HCT-116 [25] = experiment: Induction of cell cycle arrest in human HCT116 cells assessed as accumulation of cells at G0/G1 phase at 20 uM measured after 48 hrs by propidium iodide staining based flow cytometry analysis (reference value: 70.45%); assay type: functional
HCT-116 [26] = experiment: Induction of apoptosis in human HCT-116 cells assessed as early apoptotic cells at 10 uM measured after 48 hrs by Annexin V-FITC/PI staining based flow cytometry (reference value: 2.14%); assay type: functional
HCT-116 [27] = experiment: Induction of apoptosis in human HCT-116 cells assessed as increase in apoptotic cells with twinkling cell nuclei at 1.25 to 10 uM measured after 48 hrs by Hoechst 33342 staining based light blue fluorescence analysis; assay type: functional; details: dose 1.25-10 µM
MCF7 = experiment: Antiproliferative activity against human MCF7 cells assessed as inhibition of cell proliferation measured after 72 hrs by MTT assay; assay type: functional, cell-based; details: MCF7, 72 h
[28] = AUC (0 to t) in Sprague-Dawley rat at 100 mg/kg, ig measured for 24 hrs by LC-MS analysis; assay type: ADME, organism-based; parameters: time 24 hrs, dose 100 mg/kg; details: in vivo, po
RAW264.7 = experiment: Anti-inflammatory activity against mouse RAW264.7 cells assessed as decrease in LPS-induced IL-6 secretion measured after 24 hrs by ELISA; assay type: functional, cell-based; details: dose 5-20 µM
MGC-803 [29] = experiment: Antiproliferative activity against human MGC-803 cells assessed as inhibition of cell proliferation measured after 72 hrs by MTT assay; assay type: functional, cell-based; details: MGC-803, 72 h
[30] = Observed AUC (0 to infinity) in Sprague-Dawley rat at 100 mg/kg, ig measured for 24 hrs by LC-MS analysis; assay type: ADME, organism-based; parameters: route intragastric, time 24 hrs, dose 100 mg/kg; details: in vivo, po
[31] = Toxicity in Kunming mouse assessed as animal activity at 1000 mg/kg, ig measured for 14 days; assay type: organism-based; details: in vivo, po, 336 h, time 14 day
HCT-116 [32] = experiment: Induction of apoptosis in human HCT-116 cells assessed as viable cells at 20 uM measured after 48 hrs by Annexin V-FITC/PI staining based flow cytometry (reference value: 94.9%); assay type: functional; details: read-out: Activity
HCT-116 [33] = experiment: Induction of apoptosis in human HCT-116 cells assessed as early apoptotic cells at 20 uM measured after 48 hrs by Annexin V-FITC/PI staining based flow cytometry (reference value: 2.14%); assay type: functional
HCT-116 [34] = experiment: Downregulation of STAT3 protein expression in human HCT-116 cells at 2.5 to 10 uM measured after 48 hrs by western blot assay; assay type: functional, cell-based; details: dose 2.5-10 µM
HGC-27 = experiment: Antiproliferative activity against human HGC-27 cells assessed as inhibition of cell proliferation measured after 72 hrs by MTT assay; assay type: functional, cell-based; details: HGC-27, 72 h
[35] = Toxicity in po dosed Kunming mouse; assay type: organism-based; details: in vivo

Signal transducer and activator of transcription 3 (Homo sapiens), sequence (P40763 whole entry): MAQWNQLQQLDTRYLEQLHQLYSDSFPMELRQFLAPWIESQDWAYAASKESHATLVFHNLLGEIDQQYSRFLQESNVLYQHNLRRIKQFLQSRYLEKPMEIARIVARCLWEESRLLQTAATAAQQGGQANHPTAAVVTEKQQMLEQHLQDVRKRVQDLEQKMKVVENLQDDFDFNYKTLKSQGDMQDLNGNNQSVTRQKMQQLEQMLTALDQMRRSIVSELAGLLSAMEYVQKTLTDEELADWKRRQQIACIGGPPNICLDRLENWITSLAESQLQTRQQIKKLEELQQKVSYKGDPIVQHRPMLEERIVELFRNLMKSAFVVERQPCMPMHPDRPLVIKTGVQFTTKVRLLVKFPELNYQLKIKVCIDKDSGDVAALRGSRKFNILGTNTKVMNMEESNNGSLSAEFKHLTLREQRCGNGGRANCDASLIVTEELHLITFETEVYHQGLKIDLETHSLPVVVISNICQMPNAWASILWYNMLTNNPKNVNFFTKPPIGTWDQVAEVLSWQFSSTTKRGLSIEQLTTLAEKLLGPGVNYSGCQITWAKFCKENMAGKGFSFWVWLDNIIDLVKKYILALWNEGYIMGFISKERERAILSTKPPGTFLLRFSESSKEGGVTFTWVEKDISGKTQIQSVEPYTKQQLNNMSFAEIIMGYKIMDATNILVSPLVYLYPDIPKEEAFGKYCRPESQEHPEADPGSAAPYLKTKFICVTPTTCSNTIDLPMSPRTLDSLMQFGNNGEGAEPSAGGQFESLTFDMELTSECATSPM

## Cc1c(Cl)cccc1Nc1ccccc1C(=O)NCCc1c[nH]c2ccccc12
MGC-803 [1]
  Activity: Dose-Dependent Effect
HCT-116 [2]
  Activity: 2.62%
HCT-116 [3]
  Activity: Active
HCT-116 [4]
  viability at 2.5 µM: 91.3%
MGC-803 [5]
  inhibition: Dose-Dependent Effect
HCT-116 [6]
  inhibition: Active
HCT-116 [7]
  Activity: 8.95%
[8]
  Activity: Non-Toxic
MGC-803 [9]
  Activity: Non-Toxic
[10]
  inhibition: Active
HCT-116 [11]
  Activity: 2.42%
HCT-116 [12]
  Activity: Dose-Dependent Effect
HCT-116 [13]
  Activity: Active
HCT-116 [14]
  Activity: Dose-Dependent Effect
HCT-116 [15]
  Activity: Active
HCT-116 [16]
  Activity: 2.81%
[17]
  Activity: Non-Toxic
HCT-116 [18]
  Activity: Active
MGC-803 [19]
  Activity: inactive
HCT-116 [20]
  Activity: 2.07%
MGC-803 [21]
  Activity: Dose-Dependent Effect
HCT-116 [22]
  Activity: Active
[23]
  half-life: 7.58 h
MGC-803 [24]
  Activity: inactive
HCT-116 [25]
  Activity: 84.74%
HCT-116 [26]
  Activity: 33%
HCT-116 [27]
  Activity: Active
MCF7
  IC50: 12.8 µM
[28]
  AUC(0-t) at 24 h: 1670 ng·h/mL
RAW264.7
  Activity: Dose-Dependent Effect
MGC-803 [29]
  IC50: 9.96 µM
[30]
  AUC(0-inf): 1930 ng·h/mL
[31]
  Activity: Non-Toxic
HCT-116 [32]
  viability at 20 µM: 45.9%
HCT-116 [33]
  Activity: 42.5%
HCT-116 [34]
  inhibition: Active
HGC-27
  IC50: 15.5 µM
[35]
  LD50: > 1000 mg/kg
